# Measurements as given in patent US20050261194A1, “Use of thymulin-like peptides for making pain-relieving medicines” (priority 2001, published 2005).
# Tested on: rats
# Experiment: Localized inflammatory hyperalgesia induced by intraplantar injection of endotoxin (ET); PP, PI, HP, TF pain tests
# Assay type: in vivo, rat
# Method: The experiments were conducted using adult, male Sprague-Dewless rats weighing between 200 and 250 g. The animals were reared under optimum conditions of light and temperature (12 h light and shadow cycle; 22±3° C.). Food and water were dispensed ad libitum. All of the experiments were conducted in compliance with the ethical directives relative to pain experiments done on animals in the conscious state (Zimmermann M., 1983, Ethical guidelines for investigations of experimental pain in conscious animals, Pain, 16:109-110) and they were approved by the Institutional Review Board for animal care.
# Thermal and mechanical pain tests were done over a period of 3 consecutive days prior to the injections, in order to establish a baseline.
# The mechanical nociceptive threshold was determined by the mechanical paw pressure test (PP), while that of the thermal nociceptive threshold was determined using the hot-plate (HP), the paw immersion in hot water (PI) and the tail flick (TF) tests.
# The PP test is done by applying a constant pressure of 0.20 g/cm^2 alternatingly to the left and right hind paws in an interval of 5 minutes between 2 consecutive pressure applications.
# In the HP test, the animals are placed individually on a hot plate (52.5° C.±0.3° C.). The pain threshold is measured by the latency period lapsed between the moment, at which the animal is placed on the hot plate and the first sign of pain, indicated by the fact that the animal licks the paw or jumps.
# In the PI test, the hind paws are wetted alternately in distilled water at 48° C. and the latency time lapsed until the first sign of withdrawal of the paw is noted.
# In the TF test, the tail of each animal is immersed in distilled water at 50.5° C. The latency time taken by the animal to withdraw it is noted. The results are based on 3 consecutive trials done in 5 minute intervals.
# In the so-called localized model, the rats received on intraplantar injection of a solution (1.25 μg in 50 μl of […]) of endotoxin (Salmonella typhasa lipopolysaccharides, Sigma) into one of the hind paws, which induces both thermal and mechanical hyperalgesia restricted to the paw having received the injection.
# Various treatments are then possible • Protocol 1(a): different groups of rats (n=5 in each group) were treated with the analogue peptide (TAP) Glu-Ala-lys-Ser-Gln-Gly-Gly-Ser-Asp (synthesized by Quantum Biotechnologies, Inc., Canada), in the following fashion : • either, they received one intraperitoneal injection (25 μg in 50 μl of physiological saline solution) of this peptide; • or, they were pretreated with different doses of this peptide (1.5 and 25 μg in 50 μl of sodium chloride) by intraperitoneal injection, 30 minutes prior to injection of endotoxins (ET) (1.25 μg in 50 μl of physiological saline solution by intraplantar injection). • Protocol 1(b): other experiments looked at comparing the efficacy of the analog peptides with that of steroids, NSAIDs and peptides known for their antagonism of the hyperalgesia induced by IL-1β and the prostaglandins.
# One group of rats was pretreated with intraperitoneal injections of Lys-D-Pro-Thr (10 mg/kg) in 100 μl of physiological saline solution, 30 minutes prior to injection of TAP. This tripeptide is know for its antagonism of the hyperalgesia induced by IL-1β only.
# In the second group, the rats received intraperitoneal injections of the Lys-D-Pro-Val tripeptide (10 mg/kg) in 100 μl of saline solution, 30 minutes prior to the injection of TAP. Lys-D-Pro-Val is an antagonist of the hyperalgesia induced by IL-1β and PEG2.
# A third and a fourth group were treated with dexamethasone and indomethacin.
# Dexamethasone phosphate dissolved in a […] sodium solution was injected, at a concentration of 200 μg/kg, just before and 3 hours after the injection of ET. […]
substance,measurement,setting,value
Glu-Ala-lys-Ser-Gln-Gly-Gly-Ser-Asp (SQGGSD; N-terminal Glu-Ala-Lys; printed: Ser-Gln-Gly-Gly-Ser-Asp) [TAP],effect compared with indomethacin and dexamethasone,"ET 1.25 μg intraplantar, indomethacin 4 mg/kg, dexamethasone 200 μg/kg, FIG. 2",effects similar to those of indomethacin and dexamethasone but at much lower concentrations
same,analgesic efficacy compared with Lys-D-Pro-Val and Lys-D-Pro-Thr peptides,"ET 1.25 μg intraplantar, tripeptides 10 mg/kg i.p., FIG. 2",much more efficacious analgesic agent
same,"latency, paw pressure (PP) test","TAP 25 μg i.p. 30 min before ET 1.25 μg intraplantar, 9 h after ET, ET alone 0.87±0.09 s, saline 2.06±0.06 s",2.05 ± 0.07 s
same,"latency, paw immersion (PI) test","TAP 25 μg i.p. 30 min before ET 1.25 μg intraplantar, 9 h after ET, ET alone 1.25±0.04 s, saline 1.97±0.05 s",1.94 ± 0.005 s
same,"latency, tail flick (TF) test","TAP 25 μg i.p. 30 min before ET 1.25 μg intraplantar, 9 h after ET, ET alone 2.40±0.06 s, saline 3.19±0.08 s",3.22 ± 0.09 s
same,"latency, hot-plate (HP) test","TAP 25 μg i.p. 30 min before ET 1.25 μg intraplantar, 9 h after ET, ET alone 6.0±0.18, saline 9.24±0.16 s",9.12 ± 0.7 s
same,effect on hyperalgesia induced by intraplantar ET,"TAP 1.5 and 25 μg i.p. pretreatment, FIG. 1",reduced in dose-dependent fashion the hyperalgesia
same,"change in latency time in the pain tests, TAP alone","TAP alone 25 μg in 50 μl saline i.p., no ET",did not result in significant change in the latency time
